How the values were obtained:
CPT1b = assay: Liver gene expression in HFD animals: CPT1b; format: in vivo, mice; conditions: data not shown
Description: (§1) To understand the mechanisms through which Humanin decreases liver lipid content, representative genes involved in lipid synthesis (SREBP-1, FAS), lipid oxidation (CPT1b) and lipid packaging and export from liver were studied. […] The role of MTTP was confirmed by studying enzyme activity.

FAS = assay: Liver gene expression in HFD animals: FAS; format: in vivo, mice; conditions: data not shown
Description: as §1

SREBP-1 = assay: Liver gene expression in HFD animals: SREBP-1; format: in vivo, mice; conditions: data not shown
Description: as §1

MTTP = MTTP enzyme activity in liver of HFD animals (Roar Biomedical); format: in vivo, mice; conditions: HNG 2 mg/kg daily, p<0.01
Description: as §1

[1] = test system: triglyceride secretion from liver; assay: Acute ICV infusion of HNG with tyloxapol injection, plasma TG levels, rats; format: in vivo, Sprague-Dawley rats
Description: (§2) The effect of humanin analog, HNG, on hepatic lipid fluxes was investigated. In the acute study, HNG was infused into third ventricle (ICV) of awake, unstressed and chronically catheterized Sprague-Dawley rats and C57BLK6 mice and studied plasma triglyceride (TG) levels following an injection of Tyloxapol (Triton WR1339, Sigma-Aldrich Corp, St. Louis, Mo.), an inhibitor of TG clearance. Groups of animals were also challenged with high fat diet (HFD) of 60% fat for one month and were treated with either daily injections of saline or of HNG (2 mg/kg). Body weight and Food intake were monitored twice a week. At the end of one month, liver fat was assessed both by histology and estimation of tissue triglycerides and plasma was collected. Total amount of visceral fat (VF) was determined and the specific depots were meticulously dissected and weighed. Tissue samples were snap-frozen for subsequent analysis.
Acute effects of Humanin on liver fluxes: The effect of HN was studied in acute and chronic treatment models. […]
(§3) With infusion of tyloxapol, there was a steady increase in plasma triglyceride levels in both groups from inhibition of TG clearance. […] The rate of TG secretion was calculated in the animals based on plasma triglyceride levels at 0 and 120 min time points using the following equation: secretion rate of TG/hr mg/min=(TG at 120 min−TG at 0 min)/number of hours.

[2] = High fat diet (60% fat) for one month with daily injections of HNG: food intake, body weight, visceral fat, liver fat, serum lipids; format: in vivo, mice; conditions: HNG 2 mg/kg daily
Description: as §2
Chronic effects of Humanin on liver lipid content: Groups of animals were challenged with high fat diet (HFD-60% fat) for one month and were treated with either daily injections of saline or HNG (2 mg/kg). At the end of one month, liver fat were assessed both by histology and estimation of tissue triglycerides.

Apo B = assay: Liver gene expression in HFD animals: Apo B; format: in vivo, mice; conditions: livers of HFD animals, HNG 2 mg/kg daily
Description: as §1

[3] = test system: Microsomal triglyceride transport protein (MTTP); assay: Liver gene expression in HFD animals: MTTP; format: in vivo, mice; conditions: livers of HFD animals, HNG 2 mg/kg daily
Description: as §1

[4] = test system: triglyceride secretion from liver; assay: Acute ICV infusion of HNG with tyloxapol injection, plasma TG levels, mice; parameters: species or system C57BLK6 mice; conditions: mouse, in vivo
Description: as §2, §3

With “MAPRGFSCLLLLTSEIDLPVKRRA (HOMO SAPIENS) [HN, humanin peptide]” the “expression of CPT1b vs control” value (CPT1b) was “no differences”, the “expression of FAS vs control” value (FAS) was “no differences” and the “expression of SREBP-1 vs control” value (SREBP-1) was “no differences”.
With “MAPRGFSCLLLLTGEIDLPVKRRA (ANALOG OF HUMAN HUMANIN PEPTIDE) [HNG]” the “MTTP activity vs control” value (MTTP) was “significantly higher”, the “serum TG levels at 120 min” value ([1]; 120 min after tyloxapol 600 mg/kg, p<0.05 vs aCSF 4.33±0.33) was 5.5 ± 0.29 mg/mL and the “rate of TG secretion” value ([1]; (TG at 120 min − TG at 0 min)/number of hours, p<0.05 vs aCSF 2.23±0.16) was 2.7 ± 0.2 mg/mL/h. For the same sequence, the “visceral fat (VF) gain vs control” value ([2]; HFD for 4 weeks) was “gained significantly less VF”, the “weight gain vs control” value ([2]; HFD for 4 weeks) was “gained significantly less weight” and the “liver fat (hepatic triglyceride content)” value ([2]; HFD one month, p<0.05 vs control 70.83±3.74) was 59.78±2.24 μg/mg of tissue. The “expression of Apo B vs control” value (Apo B) was “significantly higher”, the “expression of MTTP vs control” value [3] was “significantly higher” and the “triglyceride secretion from liver” value [4] was “increases”.

— patent US20130109635A1, “Humanin Decreases Liver Fat and Visceral Fat Accumulation” (priority 2011, published 2013)
